Reference: patent publication US12409172B2, “Dosage regimen” (UNION therapeutics A/S, priority 2023, dated 2025)
Values joined by “and” are separate entries in the source; they are usually repeats but may differ in a detail not shown here. Equal entries are not always repeated.

What was measured:
CYP3A4 = biological target: T1, CYP3A4 (Homo sapiens, UniProt P08684); assay: CYP3A4 inhibition from clinical studies; type: in vivo
T1 construct: from tissue; host or cells: human subjects in vivo (clinical studies); no organ is named
T1 sequence (P08684 whole entry): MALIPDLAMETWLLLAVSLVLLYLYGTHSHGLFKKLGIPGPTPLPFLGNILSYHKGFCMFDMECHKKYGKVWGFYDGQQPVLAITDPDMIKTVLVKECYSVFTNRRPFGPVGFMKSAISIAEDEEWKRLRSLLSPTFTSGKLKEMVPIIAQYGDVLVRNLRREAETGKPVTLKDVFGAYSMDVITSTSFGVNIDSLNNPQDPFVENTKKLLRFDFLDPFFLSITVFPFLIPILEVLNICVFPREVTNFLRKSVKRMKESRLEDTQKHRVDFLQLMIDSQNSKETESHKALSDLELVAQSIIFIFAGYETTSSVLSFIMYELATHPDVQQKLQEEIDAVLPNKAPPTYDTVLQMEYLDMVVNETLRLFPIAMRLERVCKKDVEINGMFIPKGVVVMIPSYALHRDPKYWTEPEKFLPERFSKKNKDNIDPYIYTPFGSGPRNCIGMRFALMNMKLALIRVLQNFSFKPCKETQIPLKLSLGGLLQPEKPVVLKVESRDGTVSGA
Source text: Patients receiving orismilast concurrently with these medicinal • products should be monitored for related AEs, especially if they have a narrow therapeutic window.

CYP2D6 = CYP2D6 (Homo sapiens, UniProt P10635); assay: CYP2D6 inhibition in vitro; type: in vitro ADME
CYP2D6, sequence (P10635 whole entry): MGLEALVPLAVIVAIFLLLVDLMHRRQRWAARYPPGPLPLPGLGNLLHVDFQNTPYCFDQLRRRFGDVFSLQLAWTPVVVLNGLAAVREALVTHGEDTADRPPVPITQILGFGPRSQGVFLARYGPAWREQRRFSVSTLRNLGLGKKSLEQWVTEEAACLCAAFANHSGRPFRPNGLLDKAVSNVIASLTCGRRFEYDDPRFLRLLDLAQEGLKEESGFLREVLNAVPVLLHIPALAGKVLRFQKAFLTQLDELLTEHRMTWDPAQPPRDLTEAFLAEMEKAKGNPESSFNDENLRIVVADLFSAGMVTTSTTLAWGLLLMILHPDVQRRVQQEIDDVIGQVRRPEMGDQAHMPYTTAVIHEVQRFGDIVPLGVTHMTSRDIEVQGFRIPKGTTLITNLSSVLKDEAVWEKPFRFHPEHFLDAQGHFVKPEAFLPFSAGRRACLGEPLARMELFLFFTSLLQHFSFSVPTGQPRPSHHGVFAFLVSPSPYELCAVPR
Source text: Concomitant use of orismilast • with other drugs mainly metabolized by the cytochrome CYP2D6 has not been studied clinically.

[1] = tested on: chronic oxazolone-induced ear skin inflammation; details: 10 and 30 mg/kg doses; cited from earlier work
[2] = tested on: PDE4B and PDE4D subtype splice variants; assay: PDE4 inhibition in vitro; type: biochemical
[3] = Population pharmacokinetics (popPK) model for orismilast; set-up: species or system human
Experimental: All subjects were treated with orismilast as IR capsule, IR solution, IR tablet or MR tablet with available PK samples. Although the modified release tablet was the formulation selected for further studies, the popPK model was also built using the immediate release formulations (IR solution, IR tablet and IR capsule), especially to obtain stable estimates of elimination parameters (clearances) across formulations and obtain a robust model to support the simulation.
PopPK parameters were estimated by non-linear mixed effect modelling using MONOLIX. Mixed effects models describe the influence of both fixed effects and random effects. The random effects are typically used to capture the variability which can be split in residual variability (error) and between-subject variability.
The population model was defined by 4 components: • 1. The structural popPK model components, which defines the PK parameters and describe the plasma concentration-time profiles of orismilast. • 2. The inter-individual random effect model component, which describes the inter-individual variation (IIV) and inter-occasion variation (IOV) in PK parameters after correction for fixed effects. • 3. The residual error (or random effect) model component, which describes the underlying distribution of the error in the measured concentrations. • 4. The covariate model component, which describes the influence of fixed effects (i.e., demographic factors) on PK parameters.
The search for the final model followed the following stepwise strategy: • 1. Selection of the simplest structural model, which predicts the plasma concentration as a function of time and dose, based on smallest objective function (OF) and by the pattern in the residual plots. The best structural model, the most appropriate.IIV and IOV models, and the residual error model, were identified. The structural model was determined using the rich Phase I data from healthy volunteers (LP0058-S01, LP0058-1005, LP0058-1114, LP0058-1362, LP0058-1324 and LP0058-1442). • 2. Preliminary visual check using predictive check approach was applied to sparse data from psoriasis patients (study LP0058-1072) to assess the predictability capacities of the structural model for patient data. • 3. Psoriasis patient data were included in the model and the model was refined or adjusted if necessary. • 4. Graphical exploration of the covariates: between individual covariates and EBE of parameter or random effects. • 5. Determination of the covariate model. • 6. Selection of significant covariates to obtain the FINAL model. • 7. Inclusion of new studies in the model (e.g. UN1500001-203 and CIB1353A101) was performed by repeating steps 2 to 6.
The pre-specified covariates that were suspected a priori of having an influence on PK parameters, were included in the full model and the selection of the final model with relevant covariates were based on the statistical Wald test (keep covariates with p-value <0.05). The influence of body weight on PK parameters was included using fixed standard allometric scales.
The model was evaluated using diagnostic and goodness of fit plots and validated using Visual Predictive Checks. SAS® software V9.4 and Monolix Suite version 2021R1 release were used.
The structural model was parameterised in terms of apparent clearance (CL/F), volume of distribution of central compartment (V1/F), inter-compartmental clearance (Q/F) and volume of distribution for peripheral compartment (V2/F). The absorption was described by a 1st—order rate constant (ka1) for first absorption process, 1st—order rate constant (ka2) for second absorption process, fraction of dose absorbed through the first process (F1) and lag time (tlag2) for the start of the second phase. The relative bioavailability was also added to characterize the difference between the formulations, it was set to 1 for the IR solution, so, the other formulations were expressed relatively to the IR solution. […]

O=C(Cc1c(Cl)c[n+]([O-])cc1Cl)c1ccc(OC(F)F)c2c1OC1(CCS(=O)(=O)CC1)O2 [orismilast, 2-(3,5-dichloro-1-oxidopyridin-1-ium-4-yl)-1-[7-(difluoromethoxy)-1′,1′-dioxospiro[1,3-benzodioxole-2,4′-thiane]-4-yl]ethanone]
inhibition of CYP3A4 (CYP3A4): weak inhibitor
inhibition of CYP2D6 (CYP2D6): competitive direct inhibitor
ear thickness and inflammation markers [1]: significantly reduced
inhibition of the PDE4 isoforms PDE4D3 and PDE4B2 [2]: selective inhibitor
variability of the central PK parameters [3]: 27% and 34%
AUClast GM ratio (popPK/NCA) ([3]; 1442 - Part 1 (MR, 30 mg)): 1.03
AUClast GM ratio (popPK/NCA) ([3]; 1442 - Part 2 (Fast, 30 mg)): 1.14
AUClast GM ratio (popPK/NCA) ([3]; 1442 - Part 3 (D1 = 10 mg)): 0.98
AUClast GM ratio (popPK/NCA) ([3]; 1442 - Part 3 (D17 = 60 mg)): 0.97
AUClast GM ratio (popPK/NCA) ([3]; CIBI3S3A101 (D1 = 10 mg)): 0.98
variability of Q/F ([3]; peripheral compartment): 383%
variability of V2/F ([3]; peripheral compartment): 495%
